Assay results: PubChem BioAssay (NCI)
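In this assay, cells in 96-well plates receive the compound at five concentrations for 48 hours. Endpoints are linearly interpolated between the surrounding concentrations. Abbreviation: GI50, concentration required for 50% inhibition of growth. At the TGI there is no net growth.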

How the values were obtained:
Experiment in all cases: growth of human tumour cells (NCI), 48 h
MALME-3M melanoma = tested on: MALME-3M melanoma
SNB-75 CNS = tested on: SNB-75 CNS
HCT-15 colon = tested on: HCT-15 colon
SF-295 CNS = tested on: SF-295 CNS
NCI-H23 lung = tested on: NCI-H23 lung
U251 CNS = tested on: U251 CNS
CAKI-1 renal = tested on: CAKI-1 renal
PC-3 prostate = tested on: PC-3 prostate
K-562 leukemia = tested on: K-562 leukemia
NCI-H460 lung = tested on: NCI-H460 lung
MCF7 breast = tested on: MCF7 breast
IGROV1 ovarian = tested on: IGROV1 ovarian
DU-145 prostate = tested on: DU-145 prostate
SK-MEL-5 melanoma = tested on: SK-MEL-5 melanoma
EKVX NSCLC = tested on: EKVX NSCLC
SW-620 colon = tested on: SW-620 colon
KM12 colon = tested on: KM12 colon
HL-60(TB) leukemia = tested on: HL-60(TB) leukemia
NCI-H522 lung = tested on: NCI-H522 lung
MDA-MB-435 = tested on: MDA-MB-435
SF-268 CNS = tested on: SF-268 CNS
SN12C renal = tested on: SN12C renal
MOLT-4 leukemia = tested on: MOLT-4 leukemia
SF-539 CNS = tested on: SF-539 CNS
RPMI-8226 leukemia = tested on: RPMI-8226 leukemia
HOP-62 NSCLC = tested on: HOP-62 NSCLC
OVCAR-5 ovarian = tested on: OVCAR-5 ovarian
MDA-MB-231 breast = tested on: MDA-MB-231 breast
SNB-19 CNS = tested on: SNB-19 CNS
NCI-H226 lung = tested on: NCI-H226 lung
786-0 renal = tested on: 786-0 renal
OVCAR-4 ovarian = tested on: OVCAR-4 ovarian
OVCAR-8 ovarian = tested on: OVCAR-8 ovarian
UACC-257 melanoma = tested on: UACC-257 melanoma
HT29 colon = tested on: HT29 colon
A549 NSCLC = tested on: A549 NSCLC
ACHN renal = tested on: ACHN renal
HOP-92 NSCLC = tested on: HOP-92 NSCLC
T-47D breast = tested on: T-47D breast
SR leukemia = tested on: SR leukemia
M14 melanoma = tested on: M14 melanoma
HCC-2998 colon = tested on: HCC-2998 colon
OVCAR-3 ovarian = tested on: OVCAR-3 ovarian
UO-31 renal = tested on: UO-31 renal

Cc1cc(N=C2NC(=O)S/C2=C\c2ccc(F)cc2)n[nH]1
GI50 (MALME-3M melanoma): 3.47 µM | TGI (MALME-3M melanoma): > 100 µM | GI50 (SNB-75 CNS): 2.12 µM | TGI (SNB-75 CNS): > 100 µM | GI50 (HCT-15 colon): 2.47 µM | TGI (HCT-15 colon): > 100 µM | GI50 (SF-295 CNS): 2.79 µM | TGI (SF-295 CNS): > 100 µM | GI50 (NCI-H23 lung): 3.63 µM | TGI (NCI-H23 lung): > 100 µM | GI50 (U251 CNS): 2.35 µM | TGI (U251 CNS): > 100 µM | GI50 (CAKI-1 renal): 3.81 µM | TGI (CAKI-1 renal): > 100 µM | GI50 (PC-3 prostate): 3.37 µM | TGI (PC-3 prostate): > 100 µM | GI50 (K-562 leukemia): 3.32 µM | TGI (K-562 leukemia): > 100 µM | GI50 (NCI-H460 lung): 3.13 µM | TGI (NCI-H460 lung): > 100 µM | GI50 (MCF7 breast): 2.36 µM | TGI (MCF7 breast): > 100 µM | GI50 (IGROV1 ovarian): 2.59 µM | TGI (IGROV1 ovarian): > 100 µM | GI50 (DU-145 prostate): 5.33 µM | TGI (DU-145 prostate): > 100 µM | GI50 (SK-MEL-5 melanoma): 3.16 µM | TGI (SK-MEL-5 melanoma): > 100 µM | GI50 (EKVX NSCLC): 2.69 µM | TGI (EKVX NSCLC): > 100 µM | GI50 (SW-620 colon): 3.92 µM | TGI (SW-620 colon): > 100 µM | GI50 (KM12 colon): 4.13 µM | TGI (KM12 colon): > 100 µM | GI50 (HL-60(TB) leukemia): 3.3 µM | TGI (HL-60(TB) leukemia): > 100 µM | GI50 (NCI-H522 lung): 2.57 µM | TGI (NCI-H522 lung): > 100 µM | GI50 (MDA-MB-435): 3 µM | TGI (MDA-MB-435): > 100 µM | GI50 (SF-268 CNS): 4.48 µM | TGI (SF-268 CNS): > 100 µM | GI50 (SN12C renal): 3.81 µM | TGI (SN12C renal): > 100 µM | GI50 (MOLT-4 leukemia): 2.93 µM | TGI (MOLT-4 leukemia): > 100 µM | GI50 (SF-539 CNS): 2.84 µM | TGI (SF-539 CNS): > 100 µM | GI50 (RPMI-8226 leukemia): 2.27 µM | TGI (RPMI-8226 leukemia): 6.34 µM | GI50 (HOP-62 NSCLC): 2.59 µM | TGI (HOP-62 NSCLC): > 100 µM | GI50 (OVCAR-5 ovarian): 3.65 µM | TGI (OVCAR-5 ovarian): > 100 µM | GI50 (MDA-MB-231 breast): 2.95 µM | TGI (MDA-MB-231 breast): > 100 µM | GI50 (SNB-19 CNS): 3.2 µM | TGI (SNB-19 CNS): > 100 µM | GI50 (NCI-H226 lung): 2.9 µM | TGI (NCI-H226 lung): > 100 µM | GI50 (786-0 renal): 3.01 µM | TGI (786-0 renal): > 100 µM | GI50 (OVCAR-4 ovarian): 3.85 µM | TGI (OVCAR-4 ovarian): > 100 µM | GI50 (OVCAR-8 ovarian): 2.76 µM | TGI (OVCAR-8 ovarian): > 100 µM | GI50 (UACC-257 melanoma): 2.82 µM | TGI (UACC-257 melanoma): > 100 µM | GI50 (HT29 colon): 4.09 µM | TGI (HT29 colon): > 100 µM | GI50 (A549 NSCLC): 3.07 µM | TGI (A549 NSCLC): > 100 µM | GI50 (ACHN renal): 3.36 µM | TGI (ACHN renal): > 100 µM | GI50 (HOP-92 NSCLC): 2.62 µM | TGI (HOP-92 NSCLC): > 100 µM | GI50 (T-47D breast): 2.58 µM | TGI (T-47D breast): > 100 µM | GI50 (SR leukemia): 2.35 µM | TGI (SR leukemia): > 100 µM | GI50 (M14 melanoma): 2.63 µM | TGI (M14 melanoma): > 100 µM | GI50 (HCC-2998 colon): 3.67 µM | TGI (HCC-2998 colon): > 100 µM | GI50 (OVCAR-3 ovarian): 3.13 µM | TGI (OVCAR-3 ovarian): > 100 µM | GI50 (UO-31 renal): 2.33 µM | TGI (UO-31 renal): > 100 µM
